Type in all cases: in vivo
Assay [1] relates to Balb/c mice. As to the kind of experiment: Open field test (exploratory locomotor activity). Conditions: 0.1 or 5 mg/kg oral, subchronic; for time spent in zones 2 and 3: in comparison to control mice, FIG. 1F; for locomotor activity (distance moved, velocity, strong mobility and immobility): recorded over 20 minutes, in comparison to the control mice, FIG. 1A-1D. The procedure: This method is one of the most popular in evaluation of animals' behaviour. It tests both motility parameters and anxiety (Prut et al). An individual mouse is placed in a novel plexiglass arena of 50×50 cm the floor of which is divided into 3 digital zones. The outer peripheral zone 1, the medial zone 2 and the most central zone 3. The animal behaviour in the open field is recorded by videotaping for 20 min and analyzed subsequently digitally using Noldus software for animal behaviour. The measurements include general motility: distance moved, velocity and strong mobility, as well as anxiety parameters including frequency of visits to the central area, time spent in the inner field, and number of rearing events in the centre. The more the animal stays and performs in the centre, it is less anxious.
40, 9 week old naïve male Balb/c mice were divided in 5 groups (8 mice in each group) and treated daily (0 min, p.o.) for two weeks, as follows: • 1. Control—0.5% DMSO 0.3 ml/mouse, po (3 ml/10 mice) (15 μl DMSO+2994 μl DDW), n=8. • 2. Diclofenac 10 mg/Kg=0.3 mg/0.3 ml/mouse, i.p. (3 ml/10 mice), n=8 • 3. 135S 0.5 mg/Kg=0.015 mg/0.3 ml/mouse, po (3 ml/10 mice) (135S 0.15 mg (Stock 50 mg/1 ml DMSO) 3 μl+2997 μl DDW), n=8 • 4. 135S 2.5 mg/kg=0.075 mg/0.3 ml/mouse, po (3 ml/10 mice) ([…] 0.75 mg (Stock 50 mg/1 ml DMSO) 15 μl+2985 μl DDW), n=8 • 5. 135S 0.1 mg/Kg=0.003 mg/0.3 ml/mouse, po (3 ml/10 mice) (135S […] (Stock 50 mg/1 ml DMSO) 0.6 μl+2999.4 μl DDW), n=8
Fifteen days after treatment, the five groups of mice listed above were subjected to the open field test for […]. The activity of the mice was assessed by an EthoVision video track system (Noldus Ltd.) A centre zone (“zone 3”; approximately 16% of the total area), a border area (“zone 1”; an 8 cm wide border around the edge of the arena) and an intermediate zone (“zone 2”; the remaining area) were defined. Quantitative parameters, such as the distance travelled and average speed, were recorded for the centre zone and the entire arena.
An Open Field test measures activity in a novel environment and can be used to assess a combination of locomotor activity, exploratory drive, neophobia, agoraphobia and other aspects of anxiety or fear in mice, as well as motor function. Treatment using a 0.1 mg/kg or 5 mg/kg dose of 135S or 175S compound was compared to the effect of treatment with a control substance (DMSO) or Diclofenac. The mice were placed in the centre of the arena and their activity and behaviour was recorded over a period of 20 minutes in respect of the distance moved (cm), velocity (cm/s), strong mobility and immobility. The ratio of total duration between the inner zones 2 and 3 in comparison to the outer zone 1 was recorded. The total duration in the inner zones 2 and 3 was also determined.

In assay [2] the test system is Balb/c mice. As to the kind of experiment: Forced swim test. The source says: This is one of the most widely used tools for screening antidepressant activity preclinically in an acute test and was first described by Porsolt et al (1977). The test is based on the observation that rats and mice develop an immobile posture when placed in an inescapable cylinder of water. This behavior is considered to be a behavioural despair as opposed to an active form of coping with stressful conditions. An antidepressant will reduce immobility and increase motivated behaviour of the rodent to escape from the despaired conditions. This is evidenced by increase in time of swimming, distance moved, velocity and attempts to climb the walls (strong mobility). FST is considered a good screen tool with good reliability and predictive validity.
The test in male mice (Balb/c Harlan IL) was conducted after 4 days of drug administration (90 min post last drug administration). Round glass cylinders 18 cm diameter and 20 cm depth were used. Water temperature was 24-28° C. Motivated behaviour was defined by immobility, swimming and strong mobility. Immobility in the animals was defined by activity lower than 10% movement of the centre of gravity of the animal. Swimming was defined by the distance and the velocity of the animal, and climbing was related to strong mobility (movement of centre of gravity more than 30%). Animals were dropped to the cylinder for 6 min and scoring was performed in the last 4 min after 2 min of adaptation. All results were analyzed by the Noldus (Holland) system including a camera and software for animal behaviour analyses.
Mice were treated with compound 135S at three different concentrations (0.1 mg/kg, 0.5 mg/kg and 2.5 mg/kg), or with the anti-depressant Fluoxetine (10 mg/kg) administered orally in a daily dose for 14 days. The forced swim test was performed on […].
In a first trial, the mice were placed in a tank of water, from which they could not escape. The mobility and immobility of the mice was monitored. In a second trial, the same mice were placed back into the tank. The mobility and immobility of the mice was again monitored.

Assay [3] deals with Balb/c mice. As to the kind of experiment: Elevated plus maze. To be noted: 0.1, 0.5, 2.5 mg/kg p.o., test on day 8, 15 minutes, in comparison to control mice. How it is done:
This model uses the natural fear of rodents to avoid open and elevated places. The apparatus consists of a plus-maze with two enclosed and two opposite open arms, elevated above the floor. […] This is one of the most widely used models to study effects of anxiety-like behaviour. The maze consisted of two opposing open arms (40×10 cm) and two opposing closed arms (40×10 cm, with 40 cm walls) on a platform 50 cm above the ground.
The groups of mice were treated as in Example 2 and an elevated plus maze test was carried out on day 8. This test was used as a further test of the anxiolytic effect of the drugs of the invention.
The mice were placed in the centre of the maze facing an open arm and were allowed to freely explore the maze for 15 minutes. During this time, their behaviour was observed.

Assay [4] has as its system Balb/c mice. As to the kind of experiment: Marble burying test. Conditions: 0.1, 0.5 and 2.5 mg/kg p.o., test on day 15, 20 glass marbles, 20 minutes; against control mice; FIG. 4. The procedure:
The marble burying test is a useful model of neophobia, anxiety and obsessive-compulsive behaviour. It has also been proposed that the test may have predictive validity for the screening of novel antidepressants, anxiolytics and antipsychotics. Mice can be expected to bury roughly 75% of the marbles in a 30 min period, although it varies with strain and gender. In this study, male Balb/c mice were used.
The groups of mice were treated as in Example 2 and a marble burying test was carried out on day 15. The mice were placed individually into a cage containing 20 glass marbles and exposed for 20 minutes. The number of marbles buried by the mice was monitored. […] This test provides further evidence of the anxiolytic properties of this compound, in particular with respect to treatment of obsessive compulsive disorder (OCD).

[5] abbreviates: 0.1, 0.5 and 2.5 mg/kg oral, in comparison to control mice, FIG. 2A-2C.

With `CC(O)COCC(Cc1ccc(O)cc1)NC(=O)CCc1ccccc1` (stereo not shown) [Compound 135S], in assay [1], the “time spent in zones 2 and 3” value is reported as “significant increase”; the “locomotor activity (distance moved, velocity, strong mobility and immobility)” value is reported as “did not show a significant effect”. Further, in assay [2] (setting [5]), the immobility entry was “decrease” and the mobility entry is given as “increase”. Further, the “anti-depressant effect compared with Fluoxetine” value in assay [2] (135S 0.1, 0.5 and 2.5 mg/kg against Fluoxetine 10 mg/kg, oral) is on record as “greater than that resulting from treatment of mice with the common anti-depressant drug Fluoxetine”. For the same compound, in assay [3] (FIG. 3A-3D), the “exploration of the maze” value is reported as “increased exploration of the maze”. For the same compound, the “time spent within the open arms” value in assay [3] (FIG. 3B) is “increased time spent within the open arms”. For the same compound, the “number of marbles buried” value in assay [4] is “significantly less marbles than control mice”.
Turning to `O=C(CCc1ccccc1)NC(COCCO)Cc1ccc(O)cc1` (stereo not shown) [Compound 175S], in assay [1], the “time spent in zones 2 and 3” value was “significant increase”; the “locomotor activity (distance moved, velocity, strong mobility and immobility)” value is recorded as “did not show a significant effect”.

The values above are taken from patent US9133103B2, “N-substituted benzenepropanamide and benzenepropenamide for use in the prevention or the treatment of affective disorders” (Novaremed, Ltd., priority 2011, dated 2015).
